One compound from patent US10362781B2, “Methods of controlling the breeding behavior of butterflies” (University of the West Indies, a Regional Institution, …, priority 2010, dated 2019) can be followed below.

Holding throughout (assay type): in vivo, Heraclides andraemon
The subject of assay [1] is H. andraemon. Description: Egg laying of Piper amalago var. amalago plant bred H. andraemon given a choice of plants on which to lay (Example 8). As to conditions: eggs laid on citrus plant sprayed with the substance, Piper amalago var. amalago-reared butterflies, choice of 4 plants.
Text: H. andraemon larvae were reared on Piper amalago var. amalago plant. When they pupated and were ready to lay eggs, the butterflies were given the choice of plants on which to lay eggs: unsprayed lime plants, unsprayed Piper amalago var. amalago plants, citrus plant sprayed with Piper amalago var. amalago plant oil, and citrus plant sprayed with d-limonene. The egg laying was permitted to continue until the butterflies ceased laying eggs.
The subject of assay [2] is H. andraemon. Description: H. andraemon egg laying on lime plant seedling and P. aduncum, choice of four plants (Example 9). As to conditions: P. aduncum cuttings sprayed twice daily with 0.15% d-limonene aerosol; choice of 4 plants. The text has this:
Butterflies were induced to lay on host plant Piper aduncum plant sprayed with lime plant oil, or lime plant sprayed with Piper aduncum plant oil. Piper aduncum shoots were collected in Andrew, Jamaica, and 297.35 g of leaves were placed in a Clevenger-type extractor and extracted with boiling water. Once extracted according to the methods described in Example 2, 0.8919 g of a clear oil with a minty-like odor was obtained, a yield of 0.30% by weight.
Four Heraclides andraemon pupae were placed in the cage previously described in Example 1. Three pupae hatched into adults, two males and a female, which were allowed to mate and lay eggs. They were given a choice of four types of plants on which to lay: unsprayed Piper aduncum cuttings; Piper aduncum cuttings sprayed with d-limonene; unsprayed lime seedlings; and lime seedlings sprayed with the Piper aduncum emulsion. These plants, all with young leaves, were placed around the cage.
Cuttings from the Piper aduncum shoots with young leaves were used to attempt to induce butterflies to feed and lay eggs on a Piper aduncum plant treated with lime plant extract. The Piper aduncum cuttings were sprayed twice daily for eight days, once in the morning and once in the afternoon, with a d-limonene aerosol formulation. The d-limonene aerosol formulation was prepared as a hydrocarbon mixture of 72% propane and 28% butane, with 0.15% d-limonene. […]

Assay [3] deals with H. andraemon. Description: Egg laying of lime (citrus) plant bred H. andraemon given a choice of plants on which to lay (Example 7). As to conditions: eggs laid on Piper amalago var. amalago plants sprayed with the substance, lime plant-reared butterflies, choice of 4 plants. The method, then:
The aerosol mixture for application to citrus plant and Piper amalago var. amalago plant materials was prepared by combining lime plant oil, Piper amalago var. amalago plant oil, d-limonene, or a combination thereof, with an alkane hydrocarbon mixture consisting of 28% butane and 72% propane. The aerosol was filled to a concentration of, e.g., 0.25% by weight of Piper amalago var. amalago plant oil in the hydrocarbon mixture or, e.g., 0.45% by weight of lime plant oil in the hydrocarbon mixture.
H. andraemon larvae were reared on lime plant. When they pupated and were ready to lay eggs, they were given the choice of plants on which to lay eggs: unsprayed lime plants, unsprayed Piper amalago var. amalago plants, Piper amalago var. amalago plants sprayed with lime plant oil, and Piper amalago var. amalago plants sprayed with d-limonene. Egg laying was permitted to continue until the butterflies ceased laying eggs. Nearly 100% of the eggs laid hatched into larvae.
Table 5 summarizes the results of an experiment in which the faithfulness of egg laying on the species of plant on which the butterflies were reared was confirmed. In this experiment, both lime plant oil and d-limonene were sprayed onto Piper amalago var. amalago plant to determine whether the butterflies discriminated between the two.

Turning to `C=C(C)[C@H]1CC=C(C)CC1` [d-limonene], the entries for the “% of eggs laid” value with H. andraemon [1], with H. andraemon [2] and with H. andraemon [3] were 13.47%, 0% and 25.00%, respectively. Also, the “No. of eggs laid” value was determined as 26 in the assay on H. andraemon [1] (total 193 eggs) and 52 with H. andraemon [3] (total 208 eggs). In addition, the “No. of Eggs after 5 Days” value in the assay with H. andraemon [2] was 0.
